Test results from ChEMBL document CHEMBL5154903 (J Med Chem, 2022).
pEC50: −log10 of the molar value. The source made the active and inactive calls. No cut-off for these calls is given here.

Tests used:
HepG2 [1] = experiment: Inhibition of lipid metabolism in human HepG2 cells assessed as increase in p-ACC/ACC ratio at 10 uM incubated for 24 hrs by Western blot analysis; type: functional, cell-based
[2] = target: T1, Thyroid hormone receptor beta (Homo sapiens, UniProt P10828); experiment: Agonist activity at human TR beta LBD (202 to 461 residues) expressed in Escherichia coli BL21 (DE3) cells assessed as induction of N-terminal biotinylated coactivator SRC2-3 peptide recruitment by alphascreen assay
T1 sequence (P10828 whole entry): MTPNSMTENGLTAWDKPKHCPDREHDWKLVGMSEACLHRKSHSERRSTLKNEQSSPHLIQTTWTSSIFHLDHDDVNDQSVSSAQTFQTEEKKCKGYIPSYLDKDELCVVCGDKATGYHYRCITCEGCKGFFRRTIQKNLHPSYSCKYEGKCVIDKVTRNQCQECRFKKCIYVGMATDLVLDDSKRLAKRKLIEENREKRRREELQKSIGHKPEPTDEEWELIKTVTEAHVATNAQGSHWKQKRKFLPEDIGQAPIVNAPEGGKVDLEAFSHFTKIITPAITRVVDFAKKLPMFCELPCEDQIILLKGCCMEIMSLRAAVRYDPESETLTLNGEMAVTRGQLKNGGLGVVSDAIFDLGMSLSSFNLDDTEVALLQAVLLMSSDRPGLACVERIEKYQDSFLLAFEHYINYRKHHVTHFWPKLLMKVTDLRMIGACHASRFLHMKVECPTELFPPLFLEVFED

Egl nine homolog 1 = Egl nine homolog 1 (Homo sapiens, UniProt Q9GZT9); experiment: Inhibition of PHD2 (unknown origin) at 5 uM incubated for 15 mins by competitive fluorescence polarization assay relative to control
HepG2 [3] = experiment: Inhibition of lipid metabolism in human HepG2 assessed as reduction in intracellular total cholesterol level at 1 to 10 uM incubated for 24 hrs; type: functional, cell-based; settings: dose 1-10 µM
HepG2 [4] = experiment: Induction of mitochondrial uncoupled respiration in human HepG2 cells assessed as increase in oxygen consumption rate at 10 uM measured after 24 hrs by Seahorse XFe96 flux analyzer; type: functional, cell-based
[5] = Microsomal stability in rat liver microsomes assessed as intrinsic clearance at 1 uM incubated for 60 mins by HPLC-MS/MS analysis; type: ADME, Microsome; settings: read-out: CLH
CYP2C9 = CYP2C9 (Homo sapiens, UniProt P11712); experiment: Inhibition of CYP2C9 in human liver microsomes at 10 uM incubated for 10 mins by LC-MS/MS analysis relative to control; type: ADME, Microsome
CYP2C19 = CYP2C19 (Homo sapiens, UniProt P33261); experiment: Inhibition of CYP2C19 in human liver microsomes at 10 uM incubated for 45 mins by LC-MS/MS analysis relative to control; type: ADME, Microsome
CYP2D6 = CYP2D6 (Homo sapiens, UniProt P10635); experiment: Inhibition of CYP2D6 in human liver microsomes at 10 uM incubated for 45 mins by LC-MS/MS analysis relative to control; type: ADME, Microsome
[6] = Cmax in overnight fasted Sprague-Dawley rat at 5 mg/kg, iv measured upto 24 hrs; type: ADME, organism-based; design: time < 24 hrs, dose 5 mg/kg, route iv; settings: in vivo

Sequence of CYP2C19 (P33261 whole entry): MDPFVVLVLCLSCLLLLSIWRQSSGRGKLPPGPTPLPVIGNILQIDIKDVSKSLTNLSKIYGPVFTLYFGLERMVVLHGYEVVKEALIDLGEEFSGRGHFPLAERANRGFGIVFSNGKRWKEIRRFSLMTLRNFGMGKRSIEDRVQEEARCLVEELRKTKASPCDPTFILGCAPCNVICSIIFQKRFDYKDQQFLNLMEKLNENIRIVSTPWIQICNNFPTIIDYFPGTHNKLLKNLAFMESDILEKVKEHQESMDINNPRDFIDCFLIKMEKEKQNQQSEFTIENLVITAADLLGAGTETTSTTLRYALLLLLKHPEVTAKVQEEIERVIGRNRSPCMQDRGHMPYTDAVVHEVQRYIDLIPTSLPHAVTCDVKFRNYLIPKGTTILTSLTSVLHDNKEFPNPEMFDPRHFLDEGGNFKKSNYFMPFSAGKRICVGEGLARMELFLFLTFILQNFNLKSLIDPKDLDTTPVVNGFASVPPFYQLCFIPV
Sequence of Egl nine homolog 1 (Q9GZT9 2-426 limits assumed): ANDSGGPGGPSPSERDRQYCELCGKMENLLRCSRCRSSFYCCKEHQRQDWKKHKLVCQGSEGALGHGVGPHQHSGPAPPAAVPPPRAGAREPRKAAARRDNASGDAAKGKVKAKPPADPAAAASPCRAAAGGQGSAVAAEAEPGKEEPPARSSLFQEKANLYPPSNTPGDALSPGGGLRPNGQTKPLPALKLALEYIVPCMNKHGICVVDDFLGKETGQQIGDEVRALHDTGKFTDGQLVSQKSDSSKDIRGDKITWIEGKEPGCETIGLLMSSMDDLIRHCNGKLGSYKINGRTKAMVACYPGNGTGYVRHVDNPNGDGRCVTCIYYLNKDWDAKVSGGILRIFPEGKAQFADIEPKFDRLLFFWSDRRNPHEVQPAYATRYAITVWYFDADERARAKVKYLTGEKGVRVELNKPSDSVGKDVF
Sequence of CYP2D6 (P10635 whole entry): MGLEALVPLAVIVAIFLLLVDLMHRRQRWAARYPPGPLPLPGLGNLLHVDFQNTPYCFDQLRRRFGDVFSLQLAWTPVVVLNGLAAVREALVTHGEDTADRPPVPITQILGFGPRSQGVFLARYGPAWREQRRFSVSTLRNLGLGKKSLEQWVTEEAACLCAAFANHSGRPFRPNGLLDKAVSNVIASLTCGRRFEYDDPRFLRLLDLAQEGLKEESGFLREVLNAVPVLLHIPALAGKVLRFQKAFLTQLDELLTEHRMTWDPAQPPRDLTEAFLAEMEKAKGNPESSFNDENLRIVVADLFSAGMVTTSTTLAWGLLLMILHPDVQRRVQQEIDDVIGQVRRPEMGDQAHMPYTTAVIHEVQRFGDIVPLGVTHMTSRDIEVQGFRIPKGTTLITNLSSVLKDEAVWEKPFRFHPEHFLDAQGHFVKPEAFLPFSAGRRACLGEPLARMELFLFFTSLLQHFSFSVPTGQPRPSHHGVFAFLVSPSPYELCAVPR
Sequence of CYP2C9 (P11712 whole entry): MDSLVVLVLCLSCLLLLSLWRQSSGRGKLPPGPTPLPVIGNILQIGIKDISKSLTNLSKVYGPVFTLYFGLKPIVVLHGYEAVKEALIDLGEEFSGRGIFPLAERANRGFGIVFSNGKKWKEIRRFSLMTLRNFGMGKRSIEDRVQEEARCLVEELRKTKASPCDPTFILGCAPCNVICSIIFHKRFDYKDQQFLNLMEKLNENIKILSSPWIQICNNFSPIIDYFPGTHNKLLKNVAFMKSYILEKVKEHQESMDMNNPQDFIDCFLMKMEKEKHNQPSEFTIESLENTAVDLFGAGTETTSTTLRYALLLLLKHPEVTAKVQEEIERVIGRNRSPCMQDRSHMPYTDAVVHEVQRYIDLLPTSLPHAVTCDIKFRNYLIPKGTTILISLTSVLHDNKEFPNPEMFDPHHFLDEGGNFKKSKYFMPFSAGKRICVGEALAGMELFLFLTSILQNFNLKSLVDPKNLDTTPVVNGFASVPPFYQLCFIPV

- pEC50 [2]: 7.68
- inhibition (Egl nine homolog 1): 4.8%
- CLint scaled at 1 µM [5]: < 45.5 mL/min/kg
- inhibition at 10 min, 10 µM (CYP2C9): 18.4%
- inhibition at 0.75 h, 10 µM (CYP2C19): 12%
- inhibition at 0.75 h, 10 µM (CYP2D6): -11.3%
- Cmax [6]: 8450 ng/mL
SMILES: COc1cc(F)cc(C(=O)c2cc(C)c(Oc3ccc4c(O)c(C(=O)NCC(=O)O)nc(OC)c4c3)c(C)c2)c1
- inhibition (HepG2 [1]): Active
- inhibition (HepG2 [3]): Active
- Activity (HepG2 [4]): Active
